Experimental data published in PMC10892142, “Synthesis and In Vitro Antitumor Activity Evaluation of Gefitinib-1,2,3-Triazole Derivatives” (Molecules, 2024).

Tests used:
A549 cells = test: CCK-8 assay, A549 cells; format: cell-based; conditions: CCK-8, 48 h, mean ± SD, n = 3
Protocol: (§1) Next, cell viability was determined according to the instructions of the CCK-8 assay. Then, 10 μL CCK-8 solution was added to each well of the plate and incubated for 1–4 h in the incubator. […] The percentage of viable cells was measured using the following formula where three independent experiments were performed: [(A450sample − A450blank)/(A450control − A450blank)] × 100%.

NCI-H1437 cells = test: CCK-8 assay, NCI-H1437 cells; format: cell-based; conditions: CCK-8, 48 h, mean ± SD, n = 3
Protocol: as §1

NCI-H1299 cells = test: CCK-8 assay, NCI-H1299 cells; format: cell-based, human; conditions: CCK-8, 48 h, mean ± SD, n = 3
Protocol: as §1

IDO1 = conditions: read-out: IDO1 inhibitory activity IC50; cited from earlier work

| IC50 (A549 cells) | IC50 (NCI-H1437 cells) | IC50 (NCI-H1299 cells) | IC50 (A549 cells; Homo sapiens, A549) | IC50 (NCI-H1437 cells; Homo sapiens, NCI-H1437) | IC50 (NCI-H1299 cells; Homo sapiens, NCI-H1299) | melting point | Compound | IC50 (IDO1) |
| --- | --- | --- | --- | --- | --- | --- | --- | --- |
| 4.65 ± 0.08 µM | 2.15 ± 0.1 µM | 6.02 ± 0.12 µM |  |  |  |  | 7-Methoxy-N-(3-(1-(2-methyl-3-nitrophenyl)-1H-1,2,3-triazol-4-yl)phenyl)-6-(3-morpholinopropoxy)quinazolin-4-amine [Compound 4g] |  |
|  |  |  | 6.81 ± 0.33 µM | 2.05 ± 0.03 µM | 7.59 ± 0.19 µM | 192 to 193 °C | COc1cc2ncnc(Nc3cccc(-c4cn(Cc5ccc(F)c(Cl)c5)nn4)c3)c2cc1OCCCN1CCOCC1 [Compound 4a, N-(3-(1-(3-Chloro-4-fluorobenzyl)-1H-1,2,3-triazol-4-yl)phenyl)-7-methoxy-6-(3-morpholinopropoxy)quinazolin-4-amine] |  |
|  |  |  | 9.04 ± 0.41 µM | 6.41 ± 0.54 µM | 11.4 ± 0.97 µM | 162 to 163 °C | COc1cc2ncnc(Nc3cccc(-c4cn(-c5ccc(Cl)cc5)nn4)c3)c2cc1OCCCN1CCOCC1 [Compound 4d, N-(3-(1-(4-Chlorophenyl)-1H-1,2,3-triazol-4-yl)phenyl)-7-methoxy-6-(3-morpholinopropoxy)quinazolin-4-amine] |  |
|  |  |  | 8.62 ± 0.76 µM | 11.2 ± 0.95 µM | 11.9 ± 0.32 µM | 175 to 176 °C | COc1cc2ncnc(Nc3cccc(-c4cn(-c5ccccc5Br)nn4)c3)c2cc1OCCCN1CCOCC1 [Compound 4e, N-(3-(1-(2-Bromophenyl)-1H-1,2,3-triazol-4-yl)phenyl)-7-methoxy-6-(3-morpholinopropoxy)quinazolin-4-amine] |  |
|  |  |  | 13.7 ± 0.71 µM | 9.27 ± 0.4 µM | 13.3 ± 0.52 µM | 175 to 176 °C | COc1cc2ncnc(Nc3cccc(-c4cn(-c5ccc([N+](=O)[O-])c(C)c5)nn4)c3)c2cc1OCCCN1CCOCC1 [Compound 4f, 7-Methoxy-N-(3-(1-(3-methyl-4-nitrophenyl)-1H-1,2,3-triazol-4-yl)phenyl)-6-(3-morpholinopropoxy)quinazolin-4-amine] |  |
|  |  |  | 9.81 ± 0.34 µM | 3.09 ± 0.13 µM | 7.69 ± 0.11 µM | 167 to 168 °C | COc1cc2ncnc(Nc3cccc(-c4cn(-c5ccccc5Cl)nn4)c3)c2cc1OCCCN1CCOCC1 [Compound 4h, N-(3-(1-(2-Chlorophenyl)-1H-1,2,3-triazol-4-yl)phenyl)-7-methoxy-6-(3-morpholinopropoxy)quinazolin-4-amine] |  |
|  |  |  | 13 ± 0.29 µM | 4.77 ± 0.32 µM | 9.35 ± 0.31 µM |  | COc1cc2ncnc(Nc3cccc(-c4cn(-c5cccc(F)c5)nn4)c3)c2cc1OCCCN1CCOCC1 [Compound 4i, N-(3-(1-(3-Fluorophenyl)-1H-1,2,3-triazol-4-yl)phenyl)-7-methoxy-6-(3-morpholinopropoxy)quinazolin-4-amine] |  |
|  |  |  | 11.4 ± 0.89 µM | 6.6 ± 0.07 µM | 12 ± 0.33 µM | 187 to 188 °C | COc1cc2ncnc(Nc3cccc(-c4cn(-c5cccc6c5C(=O)N(C5CCC(=O)NC5=O)C6=O)nn4)c3)c2cc1OCCCN1CCOCC1 (stereo not drawn) [Compound 4j, 2-(2,6-Dioxopiperidin-3-yl)-4-(4-(3-((7-methoxy-6-(3-morpholinopropoxy)quinazolin-4-yl)amino)phenyl)-1H-1,2,3-triazol-1-yl)isoindoline-1,3-dione] |  |
|  |  |  | 8.95 ± 0.99 µM | 5.95 ± 0.72 µM | 7.15 ± 0.12 µM | 177 to 178 °C | COc1cc2ncnc(Nc3cccc(-c4cn(Cc5ccc(Br)cc5)nn4)c3)c2cc1OCCCN1CCOCC1 [Compound 4k, N-(3-(1-(4-Bromobenzyl)-1H-1,2,3-triazol-4-yl)phenyl)-7-methoxy-6-(3-morpholinopropoxy)quinazolin-4-amine] |  |
|  |  |  | 7.53 ± 0.66 µM | 2.23 ± 0.26 µM | 5.43 ± 0.24 µM | 167 to 168 °C | COc1cc2ncnc(Nc3cccc(-c4cn(Cc5ccccc5C#N)nn4)c3)c2cc1OCCCN1CCOCC1 [Compound 4l, 2-((4-(3-((7-Methoxy-6-(3-morpholinopropoxy)quinazolin-4-yl)amino)phenyl)-1H-1,2,3-triazol-1-yl)methyl)benzonitrile] |  |
|  |  |  | 2.39 ± 0.3 µM | 2.53 ± 0.11 µM | 4.79 ± 0.13 µM |  | COc1cc2ncnc(Nc3cccc(-c4cn(Cc5cc(Br)cc(Br)c5)nn4)c3)c2cc1OCCCN1CCOCC1 [Compound 4m, N-(3-(1-(3,5-Dibromobenzyl)-1H-1,2,3-triazol-4-yl)phenyl)-7-methoxy-6-(3-morpholinopropoxy)quinazolin-4-amine] |  |
|  |  |  | 10.4 ± 0.82 µM | 5.79 ± 0.88 µM | 5.91 ± 0.44 µM | 168 to 169 °C | COc1cc2ncnc(Nc3cccc(-c4cn(Cc5ccc(C)cc5)nn4)c3)c2cc1OCCCN1CCOCC1 [Compound 4n, 7-methoxy-N-(3-(1-(4-methylbenzyl)-1H-1,2,3-triazol-4-yl)phenyl)-6-(3-morpholinopropoxy)quinazolin-4-amine] |  |
|  |  |  |  |  |  |  | Oc1ccc(Cl)cc1-c1cnn[nH]1 [MMG-0358] | 0.082 µM |
|  |  |  |  |  |  |  | Clc1ccc(Nc2cnn[nH]2)cc1 [Vertex-AT] | 0.023 µM |
|  |  |  |  |  |  |  | COCCOc1cc2ncnc(Nc3cccc(-c4cn(Cc5ccccc5Br)nn4)c3)c2cc1OCCOC [compound e] | 0.32 ± 0.07 µM |
